ChEMBL document CHEMBL1201862, “PubChem BioAssay data set” (2004)
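Method: 48-hour compound exposure of cells in 96-well plates, five concentrations, linear interpolation of endpoints. GI50: concentration for 50% inhibition of growth.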 Active and inactive are the calls of the source. Cut-off read from the data, not from the text of the source: active = GI50 up to about 1.1 µM and inactive = higher.

Columns and labels:
Assay in all cases: inhibition of tumour cell growth, NCI panel, 48 h
Malme-3M = test system: Malme-3M
TK-10 = test system: TK-10
SF-539 = test system: SF-539
SNB-19 = test system: SNB-19
NCI-H23 = test system: NCI-H23
COLO 205 = test system: COLO 205
HL-60 = test system: HL-60
A549 = test system: A549
IGROV-1 = test system: IGROV-1
RXF 393 = test system: RXF 393
A498 = test system: A498
HT-29 = test system: HT-29
SK-MEL-5 = test system: SK-MEL-5
SN12C = test system: SN12C
HOP-92 = test system: HOP-92
CAKI-1 = test system: CAKI-1

Measured: GI50

Brc1ccc(-c2cc3c(cc2C2SCCS2)OCO3)cc1
inactive: Malme-3M 45.1 µM | TK-10 31.5 µM | SF-539 11.5 µM | SNB-19 55.5 µM | NCI-H23 39.2 µM | COLO 205 27.3 µM | HL-60 15.4 µM | A549 18.2 µM | IGROV-1 37.2 µM | RXF 393 12.9 µM | A498 19 µM | HT-29 33.3 µM | SK-MEL-5 23.3 µM | SN12C 29 µM

CC(c1ccc2c(c1)CCC1C2CC2OC23CC=CC(=O)[C@]13C)C1C[C@]2(C)O[C@]2(C)[C@H](O)O1 (some centres undefined)
inactive: Malme-3M 71.4 µM | HOP-92 92.9 µM | TK-10 > 100 µM | SF-539 82.4 µM | SNB-19 15.9 µM | COLO 205 71.9 µM | HL-60 1.96 µM | A549 16.1 µM | IGROV-1 90.6 µM | RXF 393 11.7 µM | CAKI-1 7.64 µM | HT-29 47.1 µM | SK-MEL-5 11 µM | SN12C > 100 µM
active: NCI-H23 0.219 µM

CN(C)CCn1cnc2ncccc2c1=O
inactive: Malme-3M > 100 µM | HOP-92 > 100 µM | TK-10 > 100 µM | SF-539 > 100 µM | SNB-19 > 100 µM | NCI-H23 > 100 µM | COLO 205 > 100 µM | A549 > 100 µM | IGROV-1 > 100 µM | RXF 393 > 100 µM | CAKI-1 > 100 µM | HT-29 > 100 µM | SK-MEL-5 > 100 µM | SN12C > 100 µM

CNC(=O)C1CCc2nnc(-c3ccccc3)n21 (centres undefined)
inactive: Malme-3M > 100 µM | TK-10 > 100 µM | SF-539 > 100 µM | SNB-19 > 100 µM | COLO 205 > 100 µM | HL-60 > 100 µM | A549 > 100 µM | IGROV-1 > 100 µM | RXF 393 > 100 µM | A498 > 100 µM | CAKI-1 > 100 µM | SK-MEL-5 > 100 µM | SN12C > 100 µM

COc1ccc(SS(=O)(=O)c2ccc(OC)cc2)cc1
inactive: Malme-3M 33.3 µM | HOP-92 35.9 µM | TK-10 23.3 µM | SF-539 18.8 µM | SNB-19 24.4 µM | NCI-H23 26.1 µM | COLO 205 17.9 µM | HL-60 2.24 µM | A549 24.4 µM | IGROV-1 10 µM | RXF 393 18.1 µM | A498 17.2 µM | CAKI-1 22.5 µM | HT-29 32.1 µM | SK-MEL-5 15.2 µM | SN12C 20.3 µM

O=C(CC1(O)C(=O)Nc2ccccc21)c1ccc(F)cc1 (centres undefined)
inactive: Malme-3M > 100 µM | HOP-92 > 100 µM | TK-10 > 100 µM | SF-539 > 100 µM | SNB-19 > 100 µM | NCI-H23 > 100 µM | COLO 205 > 100 µM | HL-60 > 100 µM | A549 > 100 µM | IGROV-1 > 100 µM | RXF 393 > 100 µM | A498 > 100 µM | CAKI-1 > 100 µM | HT-29 > 100 µM | SK-MEL-5 > 100 µM | SN12C > 100 µM

c1ccc(Nc2nnc(CSc3nc(-c4ccccc4)c(-c4ccccc4)[nH]3)s2)cc1
inactive: Malme-3M 19.2 µM | HOP-92 11.1 µM | TK-10 26.1 µM | SF-539 26.4 µM | NCI-H23 21.3 µM | COLO 205 12.3 µM | HL-60 13.2 µM | A549 28.4 µM | IGROV-1 21.3 µM | A498 26.5 µM | HT-29 15.2 µM | SK-MEL-5 15.2 µM | SN12C 17.1 µM

CC(=O)O[C@H]1C(=O)[C@@]2(C)C(C(OC(=O)c3ccccc3)[C@]3(O)CC(OC(=O)C(O)C(NC(=O)c4ccccc4)c4ccc(C)cc4)C(C)=C1C3(C)C)[C@]1(OC(C)=O)CO[C@@H]1C[C@@H]2O (some centres undefined)
active: Malme-3M 0.0538 µM | HOP-92 0.565 µM | SF-539 0.0106 µM | SNB-19 0.0243 µM | NCI-H23 0.0251 µM | COLO 205 0.0153 µM | HL-60 0.0069 µM | A549 0.0179 µM | IGROV-1 0.0215 µM | RXF 393 0.0074 µM | CAKI-1 0.104 µM | HT-29 0.0094 µM | SN12C 0.0545 µM
inactive: TK-10 3.08 µM | A498 12 µM

COC(=O)C1CC/C(=N/c2ccc(C)cc2C)N1 (centres undefined)
inactive: Malme-3M > 100 µM | HOP-92 > 100 µM | TK-10 > 100 µM | SNB-19 > 100 µM | NCI-H23 > 100 µM | COLO 205 > 100 µM | HL-60 > 100 µM | A549 > 100 µM | IGROV-1 > 100 µM | A498 > 100 µM | CAKI-1 > 100 µM | HT-29 > 100 µM | SK-MEL-5 > 100 µM | SN12C > 100 µM

CC(=O)Oc1ccc2c(c1)C(=O)c1nc(C)c(C)nc1C2=O
inactive: Malme-3M 19.5 µM | HOP-92 > 87.1 µM | TK-10 > 100 µM | SF-539 25.8 µM | SNB-19 > 52.4 µM | NCI-H23 43.4 µM | COLO 205 50 µM | HL-60 24.6 µM | A549 43.7 µM | IGROV-1 46.8 µM | RXF 393 31.8 µM | A498 > 63.4 µM | CAKI-1 > 76.6 µM | HT-29 31.8 µM | SK-MEL-5 16.2 µM | SN12C 46.5 µM

CC(C)=CC(=O)Cc1nc2ccc([N+](=O)[O-])cc2[nH]c1=O
inactive: Malme-3M > 100 µM | HOP-92 > 100 µM | TK-10 > 100 µM | SF-539 > 100 µM | SNB-19 > 100 µM | NCI-H23 > 100 µM | COLO 205 > 100 µM | HL-60 40.8 µM | A549 > 100 µM | IGROV-1 > 100 µM | RXF 393 > 100 µM | A498 > 100 µM | CAKI-1 > 100 µM | HT-29 > 100 µM | SK-MEL-5 22.6 µM | SN12C > 100 µM

Nc1nc(=O)n([C@@H]2CC[C@H](CO)O2)cc1F
inactive: Malme-3M > 100 µM | HOP-92 > 100 µM | TK-10 > 100 µM | SNB-19 > 100 µM | NCI-H23 > 100 µM | COLO 205 > 100 µM | HL-60 > 100 µM | A549 > 100 µM | RXF 393 > 100 µM | CAKI-1 > 100 µM | HT-29 > 100 µM | SK-MEL-5 > 100 µM | SN12C > 100 µM

O=C(NC1CCCC1=O)c1ccccc1 (centres undefined)
inactive: Malme-3M > 100 µM | HOP-92 > 100 µM | TK-10 > 100 µM | SF-539 > 100 µM | SNB-19 > 100 µM | NCI-H23 > 100 µM | HL-60 > 100 µM | A549 > 100 µM | IGROV-1 > 100 µM | RXF 393 > 100 µM | A498 13.7 µM | CAKI-1 > 100 µM | HT-29 > 100 µM | SK-MEL-5 > 100 µM | SN12C > 100 µM

CCCCCCCCCCCCCCCC(=O)OCCOCCOCCOCCOCCOC(=O)CCCCCCCCCCCCCCC
inactive: Malme-3M > 100 µM | HOP-92 > 100 µM | TK-10 > 100 µM | SNB-19 > 100 µM | NCI-H23 > 100 µM | COLO 205 > 100 µM | HL-60 > 100 µM | A549 > 100 µM | IGROV-1 > 100 µM | RXF 393 > 100 µM | A498 > 100 µM | CAKI-1 > 100 µM | HT-29 > 100 µM | SK-MEL-5 > 100 µM | SN12C > 100 µM

CC(C)(C)c1ccc2c(c1)S(=O)(=O)Nc1ccc(Cl)cc1NS(=O)(=O)c1cc(C(C)(C)C)ccc1OCCOCCOCCO2
inactive: Malme-3M 27.4 µM | HOP-92 18.5 µM | TK-10 37.5 µM | SF-539 23.5 µM | SNB-19 62.2 µM | NCI-H23 32.4 µM | COLO 205 > 100 µM | HL-60 > 100 µM | A549 25.1 µM | IGROV-1 38 µM | RXF 393 19.8 µM | A498 > 100 µM | CAKI-1 98.2 µM | HT-29 99.3 µM | SK-MEL-5 28.1 µM | SN12C 43.5 µM

O=[N+]([O-])c1ccc(Cl)c(C2SCc3nc4ccccc4n32)c1 (centres undefined)
inactive: Malme-3M 44.1 µM | HOP-92 16.1 µM | TK-10 64.6 µM | SF-539 31.9 µM | SNB-19 41.5 µM | NCI-H23 33.2 µM | COLO 205 37.6 µM | HL-60 23.2 µM | A549 44.9 µM | IGROV-1 46.2 µM | RXF 393 33 µM | A498 32.3 µM | CAKI-1 20.1 µM | HT-29 36 µM | SK-MEL-5 16.5 µM | SN12C 43.6 µM

CC(=O)Nc1ccc(/C=C/C(=O)c2sc(-c3nc(C)c(C(=O)/C=C/c4ccc(NC(C)=O)cc4)s3)nc2C)cc1
inactive: Malme-3M > 100 µM | TK-10 > 100 µM | SF-539 > 100 µM | SNB-19 > 100 µM | NCI-H23 > 100 µM | COLO 205 > 100 µM | HL-60 > 100 µM | A549 > 100 µM | IGROV-1 > 100 µM | RXF 393 > 100 µM | CAKI-1 > 100 µM | HT-29 > 100 µM | SN12C > 100 µM

O=C1NC(=O)C2C1C1C=C3c4ccccc4N(c4ccccc4)C32[C@H]2C(=O)NC(=O)[C@@H]12 (some centres undefined)
inactive: Malme-3M > 100 µM | HOP-92 > 100 µM | TK-10 > 100 µM | SF-539 > 100 µM | SNB-19 > 100 µM | COLO 205 > 100 µM | HL-60 > 100 µM | A549 > 100 µM | IGROV-1 > 100 µM | A498 > 100 µM | CAKI-1 > 100 µM | HT-29 > 100 µM | SK-MEL-5 > 100 µM | SN12C > 100 µM
